Test results as given in patent publication US9757375B2, “Compounds that inhibit human DNA ligases and methods of treating cancer” (University of Maryland, Baltimore, priority 2007, dated 2017).
Read-outs that look alike come from different tables or passages of the source. Marks after values point to notes of the source that are not given here.

How the values were obtained:
[1] = test system: MCF10A cells; assay: Cell proliferation screen (SYBR Green, Biomek FX); format: cell-based, human; details: for inhibition at 50 µM: Homo sapiens, MCF-10A; for Growth_Inh % (50 μM) MCF10A: percentage of values obtained with DMSO alone
Description: (§1) The ability of the compounds identified by CADD to inhibit proliferation of normal mammary epithelial MCF10A cells and colon carcinoma HCT116 cells was determined using a Biomek FX Laboratory Automation Workstation (Beckman Coulter, Inc., Fullerton, Calif.). On day 0, 20 μl of complete medium containing the appropriate number of cells (150-300) was plated per well of a 384-well tissue plate (Fisher Scientific, Hampton, N.H.) and incubated overnight at 37° C. with 5% CO2 and 90% humidity. Next day, day 1, compounds were prepared by serial dilution with complete medium to yield the concentration 100 μM, and 20 μl was added to each well containing 20 μl of medium and cells yielding the final concentration 50 μM in 40 μl volume. Plates were incubated for additional 3 days (days-2-5) until control cells (0.5% DMSO) reached ˜70-80% confluency. On day 6, 40 μl of lysis/detection solution containing 1.2% Igepal CA-630 (Sigma) and a 1:1000 dilution of SYBR Green I nucleic acid stain (Molecular Probes, Eugene, Oreg.) was added to each well. Following an overnight incubation at 37° C., total fluorescence was measured using a Fluorostar Galaxy plate reader with a 485 nm excitation filter and 520 nm emission filter set (BMG Labtech, Inc., Durham, N.C.). Data was exported to a custom program that determined growth inhibition by dividing each individual fluorescence value by the average of fluorescence values obtained with cells treated with DMSO alone.
(§2) The 192 human DNA ligase inhibitors were screened in parallel for effects on proliferation and the ability to potentiate the effects of several DNA damaging agents using two cell human lines, a colon cancer line HCT116 and a normal breast epithelial cell line MCF10A using a Biomek FX Laboratory Automation Workstation as described (23). The DNA damaging agents used, methyl methanesulfonate (MMS), camptothecin, cis-platinum, 3 aminobenzamide and ionizing radiation, are representatives of classes of agents used to treat cancer. Briefly, HCT116 and MCF10A cells were plated in 96 well plates such that the cultures were about 80% confluent after 5 days incubation. Compounds were added to the cultures at either 15 μM or 50 μM 1 day after plating. After incubation for 3 days, cell lysed in a solution containing 1.2% Igepal CA-630 and SYBR green that stains DNA (1:1000, Molecular Probes, Eugene, Oreg.). Subsequently, fluorescence was measured per well. The studies with DNA damaging agents were performed as follows. […] For ionizing radiation, cells were pre-incubated with the compounds at 50 μM for 1 hour prior to exposure to 2 gray of ionizing radiation. Cultures were incubated for 3 days and then treated as above.

[2] = test system: HCT116 cells; assay: Cell proliferation screen (SYBR Green, Biomek FX); format: cell-based, human; details: for inhibition at 50 µM: Homo sapiens, HCT-116, read-out: % growth inhibition HCT116 50 uM; for Growth_Inh % (50 μM) HCT116: percentage of values obtained with DMSO alone
Description: as §1, §2

[3] = test system: HCT116 and MCF10A cells; assay: Cell proliferation screen, result stated for one or both cell lines; format: cell-based, human; details: in vivo cell culture screen
Description: as §1, §2

[4] = test system: HCT116 cells; assay: Screen for potentiation of DNA damaging agents (MMS, camptothecin, cis-platinum, 3 aminobenzamide, ionizing radiation); format: cell-based, human; details: for MMS: Ratios of IC50 HCT116: compound alone vs combination with MMS (100 μM); for MMS: Ratios of IC50 HCT116 / IC50 ratios of non- and 3-AB treated cells HCT116: 1 = no sensitization; for IC50 ratios of non- and 3-AB treated cells HCT116: compound alone vs combination with 3-AB (2 mM)
Excerpt: as §2

[5] = test system: MCF7, HCT116, HeLa, and MCF10A cells; assay: Survival assay on cell panel (FIG. 9); format: cell-based, human; details: for EC50 / cell survival: remark in words: cell line not stated; for potentiation of the cytotoxic effects of DNA-damaging agents: L67 3 μmol/L with MMS (MCF7 vs MCF10A), L189 20 μmol/L with ionizing radiation (HCT116 vs MCF10A), FIG. 9B; for cytotoxicity (cell survival): MCF7, HCT116, HeLa, MCF10A, FIG. 9A
Excerpt: FIG. 9. […] A, effect of L67 (left) and L189 (right) on the survival of MCF7 (Δ), HCT116 (□), HeLa (⋄), and MCF10A (upsidedown triangle) cells. B, normal breast epithelial MCF10A cells (open symbols) and breast cancer MCF7 cells (filled symbols) in the absence (circles) or presence of 3 μmol/L of L67 (squares) were exposed to increasing concentrations of MMS (left). Normal breast epithelial MCF10A cells (open symbols) and colon cancer HCT116 cells (filled symbols) in the absence (circles) or presence of 20 μmol/L of L189 (squares) were exposed to increasing doses of ionizing radiation (right). C, hLigI (I), hLigIIIα (III), and hLigIV (IV) were detected in extracts (400 μg) of the indicated cell lines by immunoblotting. To control for extract loading β-actin was also detected by immunoblotting.
For survival assays, cells were plated in 6 well plates and grown either in the absence or presence of ligase inhibitors. Where indicated, either MMS (0-50 μM) was added to the medium or the cells were irradiated in a Cs-137 irradiator (0-2.5 Gy). After two weeks, colonies were stained with crystal violet (Sigma) and then counted.

[6] = test system: HeLa cell extract; assay: Cell extract assay of nonhomologous end-joining (1 kb cohesive-ended fragment); format: biochemical, human; details: 100 μmol/L (also 25 μM in the source), FIG. 4C
Description: Extracts were prepared from human cervical cancer HeLa cells as described previously (27, 31). For base excision repair (BER) assays, the extraction buffer contained 100 mmol/L of KCl, whereas for nonhomologous end-joining (NHEJ) assays, extraction buffer contained 400 mmol/L of KCl. Where indicated, DNA ligases were immunodepleted from the extracts as described (32) using protein A or G Sepharose beads (GE Healthcare) and anti-Lig1, anti-LigIII (GeneTex), or anti-LigIV (ABCAM) antibodies. Depletion was confirmed by immunoblotting.
To assay NHEJ (24), a 1 kb end-labeled BamHI fragment (0.1 pmol; (33)). and 20 μg of extract were incubated in ligation buffer (final volume, 20 μL), for 120 min at 25° C. either in the presence or absence of ligase inhibitors (100 μmol/L). DNA fragments were resolved by separation through a 0.8% agarose gel. Labeled DNA fragments were detected in the dried gel by phosphorImager analysis (Molecular Dynamics).
Linear DNA molecules with short complementary single strand overhangs are repaired by non-homologous end joining that is completed by DNA ligase IV (27). A HeLa extract was incubated with a labeled linear cohesive-ended 1 kb fragment with cohesive ends repair in the absence or presence of Compounds 67, 82 and 189 (25 μM).). Lane 7, DNA ligase I was immunodepleted from the extract prior to the assay. […], DNA ligase III was immunodepleted from the extract prior to the assay. […], DNA ligase IV was immunodepleted from the extract prior to the assay. After separation by native agarose gel electrophoresis, the linear DNA substrate, re-circularized substrate and dimers trimers etc of the 1 kb substrate were detected by phosphorimaging (27). […]

[7] = 50 μM, read-out: In vivo growth inhb MCF10A % Inhb at 50
[8] = read-out: % growth inhibition MCF10A 50 uM

| Compound | inhibition at 50 µM [1, 7] [%] | inhibition at 50 µM [1, 8] [%] | In vitro growth inhb HCT116 % Inhb at 50 (μM) [2] [%] | inhibition at 50 µM [2] [%] | inhibition of cell proliferation, in words [3] | MMS: Ratios of IC50 HCT116 [4] | Growth_Inh % (50 μM) MCF10A ([1]; 50 μM) [%] | EC50 ([5]; Homo sapiens) [µM] | IC50 ratios of non- and 3-AB treated cells HCT116 [4] | joining of linear DNA molecules (non-homologous end joining) [6] | Growth_Inh % (50 μM) HCT116 [2] [%] | potentiation of the cytotoxic effects of DNA-damaging agents [5] | cytotoxicity (cell survival) [5] | cell survival: remark in words [5] | Radiosensitizers: IC50 ratios HCT116 ([4]; ionizing radiation) | % growth inhibition MCF10A 50 uM ([1]; 50 uM) [%] | % growth inhibition of MCF10A cells in culture at 50 uM ([1]; 50 μM) [%] | % growth inhibition HCT116 50 uM ([2]; 50 uM) [%] | EC50 [5] [µM] |
| --- | --- | --- | --- | --- | --- | --- | --- | --- | --- | --- | --- | --- | --- | --- | --- | --- | --- | --- | --- |
| C/C(O)=C1/C(=O)N(c2nc3ccccc3s2)N=C1c1ccccc1 [Compound 43] | 70 | 70 | 70 | 70 | inhibited cell proliferation | – | – | – | – | – | – | – | – | – | – | – | – | – | – |
| O=C(O)CSc1cc(Cl)c2nonc2c1[N+](=O)[O-] [Compound 64] | 40 | 40 | – | 70 | inhibited cell proliferation | 2** | 40 | ~50 | – | – | – | – | – | – | – | – | – | – | – |
| Cc1c(Br)cc(NCC(=O)N/N=C\c2cc([N+](=O)[O-])ccc2O)cc1Br [Compound 67] | 70 | 70 | 70 | 70 | inhibited cell proliferation | 1.4 | 70 | ~10 | 1 | had no effect | 70 | potentiate the cytotoxic effects of DNA-damaging agents | cytotoxic | – | – | – | – | – | – |
| O=c1[nH]ncc(N/N=C\c2ccc(O)c([N+](=O)[O-])c2)c1Cl [Compound 82] | 70 | 70 | 40 | 40 | inhibited cell proliferation | – | 70 | ~50 | – | had no effect | 40 | – | – | cytostatic, G1 | – | – | – | – | – |
| O=C(Cn1cnc([N+](=O)[O-])n1)N/N=C/c1ccc(O)cc1O [Compound 151] | 70 | 70 | 70 | 70 | inhibited cell proliferation | 1.7 | – | ~10 | – | – | – | – | – | – | 2 | – | – | – | – |
| O=C1Nc2ccccc2Oc2cc([N+](=O)[O-])cc([N+](=O)[O-])c21 [Compound 180] | – | – | – | – | – | – | 70 | – | – | – | 70 | – | – | – | – | – | – | – | – |
| CS(=O)(=O)NNC(=O)C(=O)NNc1ccccc1 [Compound 184] | – | – | 40 | – | inhibited cell proliferation | – | – | – | – | – | – | – | – | – | – | 70 | 70 | 40 | ~10 |
| Nc1nc(S)nc(O)c1/N=C/c1ccccc1 [Compound 189] | 70 | 70 | 70 | 70 | inhibited cell proliferation | – | 70 | ~50 | – | reduced joining of the linear DNA molecules | 70 | potentiate the cytotoxic effects of DNA-damaging agents | cytotoxic | – | – | – | – | – | – |
| COc1ccc(-c2cnc3c(O)nc(O)nc3n2)cc1 [Compound 190] | 40 | 40 | 40 | 40 | inhibited cell proliferation | – | 70 | – | – | – | 40 | – | – | – | – | – | – | – | – |
| Cc1oc(C(=O)O)cc1CSCc1cc(C(=O)O)c(C)o1 [Compound 197] | – | – | – | – | – | – | – | – | – | – | – | – | – | no activity | – | – | – | – | – |
| O=C(c1ccc(O)cc1)c1ccccc1O [Compound 200] | – | 70 | – | 70 | – | ID (1) | – | – | ID (1) | – | – | – | – | metabolite active | – | – | – | – | – |
| CCCCC(=O)c1ccc(O)cc1O [Compound 213] | 70 | 70 | 70 | 70 | inhibited cell proliferation | – | – | – | – | – | – | – | – | – | – | – | – | – | – |
